Patent US9845322B2 (Hoffmann-La Roche Inc., priority 2016, dated 2017)
Read-outs that look alike come from different tables or passages of the source.

System: HBsAg secretion in HepG2.2.15 cells
Assay: HBsAg assay (chemiluminescence immunoassay of secreted HBsAg in culture supernatant)
Format: cell-based, HBV
Settings: concentration at which HBsAg secretion was reduced by 50% compared to the no drug control, read-out: IC50 (HBsAg assay)
Procedure, shortened: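 IC50 taken from dose-response curves as the concentration halving secreted HBsAg relative to DMSO control. Measured by chemiluminescence immunoassay of culture supernatant from constitutively HBV-expressing HepG2.2.15 cells, seeded at 1.5×10^4/well in duplicate and exposed to three-fold serial compound dilutions at 1% final DMSO.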

[1] = Hepatitis B virus, HepG2.2.15, HepG2.2.15 cells

| Structure (SMILES) | IC50 [1] [µM] | IC50 (HepG2.2.15 cells) [µM] |
| --- | --- | --- |
| CC1c2cnc(-c3ncccn3)nc2CCN1c1cc(F)c(F)c(OCCCCCN)c1 (stereo not drawn) [Example 57, 5-[2,3-difluoro-5-(5-methyl-2-pyrimidin-2-yl-7,8-dihydro-5H-pyrido[4,3-d]pyrimidin-6-yl)phenoxy]pentan-1-amine] | 0.11 |  |
| CC1c2cnc(-c3ncccn3)nc2CCN1c1cc(F)c(F)c(OCCCCCCNC(=O)OC(C)(C)C)c1 (stereo not drawn) [Example 58, tert-butyl N-[6-[2,3-difluoro-5-(5-methyl-2-pyrimidin-2-yl-7,8-dihydro-5H-pyrido[4,3-d]pyrimidin-6-yl)phenoxy]hexyl]carbamate] | 0.193 |  |
| CC1c2cnc(-c3ncccn3)nc2CCN1c1cc(F)c(F)c(OCCCCCCN)c1 (stereo not drawn) [Example 59, 6-[2,3-difluoro-5-(5-methyl-2-pyrimidin-2-yl-7,8-dihydro-5H-pyrido[4,3-d]pyrimidin-6-yl)phenoxy]hexan-1-amine] |  | 0.075 |
| COC(=O)CCCCOc1cc(N2CCc3nc(-c4ncccn4)ncc3C2C)cc(F)c1F (stereo not drawn) [Example 62, methyl 5-[2,3-difluoro-5-(5-methyl-2-pyrimidin-2-yl-7,8-dihydro-5H-pyrido[4,3-d]pyrimidin-6-yl)phenoxy]pentanoate] | 0.494 |  |
| CC1c2cnc(-c3ncccn3)nc2CCN1c1cc(F)c(F)c(OCCCCC(=O)O)c1 (stereo not drawn) [Example 63, 5-[2,3-difluoro-5-(5-methyl-2-pyrimidin-2-yl-7,8-dihydro-5H-pyrido[4,3-d]pyrimidin-6-yl)phenoxy]pentanoic acid] | 0.447 |  |
| CC1c2cnc(-c3ncccn3)nc2CCN1c1cc(F)c(F)c(OCC(=O)O)c1 (stereo not drawn) [Example 65, 2-[2,3-difluoro-5-(5-methyl-2-pyrimidin-2-yl-7,8-dihydro-5H-pyrido[4,3-d]pyrimidin-6-yl)phenoxy]acetic acid] | 16.7 |  |
| CC1c2cnc(-c3ncccn3)nc2CCN1c1cc(F)c(F)c(OCC(N)=O)c1 (stereo not drawn) [Example 66, 2-[2,3-difluoro-5-(5-methyl-2-pyrimidin-2-yl-7,8-dihydro-5H-pyrido[4,3-d]pyrimidin-6-yl)phenoxy]acetamide] |  | 0.168 |
| CC1c2cnc(-c3ncccn3)nc2CCN1c1cc(F)c(F)c(OCC(F)(F)F)c1 (stereo not drawn) [Example 69, 6-[3,4-difluoro-5-(2,2,2-trifluoroethoxy)phenyl]-5-methyl-2-pyrimidin-2-yl-7,8-dihydro-5H-pyrido[4,3-d]pyrimidine] | 0.033 |  |
| CC1c2cnc(-c3ncccn3)nc2CCN1c1cc(F)c(F)c(OCC(F)F)c1 (stereo not drawn) [Example 70, 6-[3-(2,2-difluoroethoxy)-4,5-difluoro-phenyl]-5-methyl-2-pyrimidin-2-yl-7,8-dihydro-5H-pyrido[4,3-d]pyrimidine] | 0.026 |  |
| CC1c2cnc(-c3ncccn3)nc2CCN1c1cc(F)c(F)c(OC(F)F)c1 (stereo not drawn) [Example 71, 6-[3-(difluoromethoxy)-4,5-difluoro-phenyl]-5-methyl-2-pyrimidin-2-yl-7,8-dihydro-5H-pyrido[4,3-d]pyrimidine] | 0.068 |  |
| COc1cc(F)cc(N2CCc3nc(-c4ncccn4)ncc3C2C)c1 (stereo not drawn) [Example 72, 6-(3-fluoro-5-methoxy-phenyl)-5-methyl-2-pyrimidin-2-yl-7,8-dihydro-5H-pyrido[4,3-d]pyrimidine] |  | 0.022 |
| CC1c2cnc(-c3ncccn3)nc2CCN1c1cc(F)c(F)c(OCC2CCOC2)c1 (stereo not drawn) [Example 75, 6-[3,4-difluoro-5-(tetrahydrofuran-3-ylmethoxy)phenyl]-5-methyl-2-pyrimidin-2-yl-7,8-dihydro-5H-pyrido[4,3-d]pyrimidine] | 0.021 |  |
| CC1c2cnc(-c3ncccn3)nc2CCN1c1cc(F)c(F)c(OCC2COC2)c1 (stereo not drawn) [Example 76, 6-[3,4-difluoro-5-(oxetan-3-ylmethoxy)phenyl]-5-methyl-2-pyrimidin-2-yl-7,8-dihydro-5H-pyrido[4,3-d]pyrimidine] | 0.028 |  |
| CC1c2cnc(-c3ncccn3)nc2CCN1c1cc(F)c(F)c(OCC2(CO)CC2)c1 (stereo not drawn) [Example 77, [1-[[2,3-difluoro-5-(5-methyl-2-pyrimidin-2-yl-7,8-dihydro-5H-pyrido[4,3-d]pyrimidin-6-yl)phenoxy]methyl]cyclopropyl]methanol] | 0.105 |  |
| CC1c2cnc(-c3ncccn3)nc2CCN1c1cc(F)c(F)c(OCCCS(=O)(=O)O)c1 (stereo not drawn) [Example 78, 3-[2,3-difluoro-5-(5-methyl-2-pyrimidin-2-yl-7,8-dihydro-5H-pyrido[4,3-d]pyrimidin-6-yl)phenoxy]propane-1-sulfonic acid] | 0.976 |  |
| CC1c2cnc(-c3ncccn3)nc2CCN1c1cc(F)c(F)c(OCCC2COC2)c1 (stereo not drawn) [Example 79, 6-[3,4-difluoro-5-[2-(oxetan-3-yl)ethoxy]phenyl]-5-methyl-2-pyrimidin-2-yl-7,8-dihydro-5H-pyrido[4,3-d]pyrimidine] | 0.015 |  |
| CC1c2cnc(-c3ncccn3)nc2CCN1c1cc(F)c(F)c(OCCCN2CCOCC2=O)c1 (stereo not drawn) [Example 80] | 0.071 |  |

| Structure (SMILES) | IC50 [1] [µM] | IC50 (HepG2.2.15 cells) [µM] |
| --- | --- | --- |
| CC1c2cnc(-c3ncccn3)nc2CCN1c1cc(F)cc(C(F)(F)F)c1 (stereo not drawn) [Example 81, 6-[3-fluoro-5-(trifluoromethyl)phenyl]-5-methyl-2-pyrimidin-2-yl-7,8-dihydro-5H-pyrido[4,3-d]pyrimidine] | 0.131 |  |
| CC1c2cnc(-c3ncccn3)nc2CCN1c1cc(F)c(F)c(OCC2CC2(F)F)c1 (stereo not drawn) [Example 82] | 0.03 |  |
| CC1c2cnc(-c3ncccn3)nc2CCN1c1cc(F)c(F)c(OCC(=O)NC2CCOC2)c1 (stereo not drawn) [Example 83, 2-[2,3-difluoro-5-(5-methyl-2-pyrimidin-2-yl-7,8-dihydro-5H-pyrido[4,3-d]pyrimidin-6-yl)phenoxy]-N-tetrahydrofuran-3-yl-acetamide] | 0.19 |  |
| CC1c2cnc(-c3ncccn3)nc2CCN1c1cc(F)c(F)c(OCC(=O)N2CCOCC2)c1 (stereo not drawn) [Example 84, 2-[2,3-difluoro-5-(5-methyl-2-pyrimidin-2-yl-7,8-dihydro-5H-pyrido[4,3-d]pyrimidin-6-yl)phenoxy]-1-morpholino-ethanone] | 0.266 |  |
| CCOC(=O)CCCCCCOc1cc(N2CCc3nc(-c4ncccn4)ncc3C2C)cc(F)c1F (stereo not drawn) [Example 85, ethyl 7-[2,3-difluoro-5-(5-methyl-2-pyrimidin-2-yl-7,8-dihydro-5H-pyrido[4,3-d]pyrimidin-6-yl)phenoxy]heptanoate] | 0.156 |  |
| CC1c2cnc(-c3ncccn3)nc2CCN1c1cc(F)c(F)c(OCC2CC2)c1 (stereo not drawn) [Example 88, 6-[3-(cyclopropylmethoxy)-4,5-difluoro-phenyl]-5-methyl-2-pyrimidin-2-yl-7,8-dihydro-5H-pyrido[4,3-d]pyrimidine] | 0.027 |  |
| CC1c2cnc(-c3ncccn3)nc2CCN1c1cc(F)c(F)c(OCC2CCOCC2)c1 (stereo not drawn) [Example 89, 6-[3,4-difluoro-5-(tetrahydropyran-4-ylmethoxy)phenyl]-5-methyl-2-pyrimidin-2-yl-7,8-dihydro-5H-pyrido[4,3-d]pyrimidine] | 0.021 |  |
| CC1c2cnc(-c3ncccn3)nc2CCN1c1cc(F)c(F)c(OCCCNC(=O)OC(C)(C)C)c1 (stereo not drawn) [Example 90, tert-butyl N-[3-[2,3-difluoro-5-(5-methyl-2-pyrimidin-2-yl-7,8-dihydro-5H-pyrido[4,3-d]pyrimidin-6-yl)phenoxy]propyl]carbamate] | 0.022 |  |
| CC1c2cnc(-c3ncccn3)nc2CCN1c1cc(F)c(F)c(OCCCN)c1 (stereo not drawn) [Example 91, 3-[2,3-difluoro-5-(5-methyl-2-pyrimidin-2-yl-7,8-dihydro-5H-pyrido[4,3-d]pyrimidin-6-yl)phenoxy]propan-1-amine] | 0.483 |  |
| CC(=O)NCCCOc1cc(N2CCc3nc(-c4ncccn4)ncc3C2C)cc(F)c1F (stereo not drawn) [Example 92, N-[3-[2,3-difluoro-5-(5-methyl-2-pyrimidin-2-yl-7,8-dihydro-5H-pyrido[4,3-d]pyrimidin-6-yl)phenoxy]propyl]acetamide] | 0.054 |  |
| CC1c2cnc(-c3ncccn3)nc2CCN1c1cc(F)c(F)c(OCCCNS(=O)(=O)C2CC2)c1 (stereo not drawn) [Example 93, N-[3-[2,3-difluoro-5-(5-methyl-2-pyrimidin-2-yl-7,8-dihydro-5H-pyrido[4,3-d]pyrimidin-6-yl)phenoxy]propyl]cyclopropanesulfonamide] | 0.061 |  |
| COCCS(=O)(=O)NCCCOc1cc(N2CCc3nc(-c4ncccn4)ncc3C2C)cc(F)c1F (stereo not drawn) [Example 94, N-[3-[2,3-difluoro-5-(5-methyl-2-pyrimidin-2-yl-7,8-dihydro-5H-pyrido[4,3-d]pyrimidin-6-yl)phenoxy]propyl]-2-methoxy-ethanesulfonamide] | 0.07 |  |
| CC1c2cnc(-c3ncccn3)nc2CCN1c1cc(F)c(F)c(OCCCNC(=O)CCCCl)c1 (stereo not drawn) [Example 95, 4-chloro-N-[3-[2,3-difluoro-5-(5-methyl-2-pyrimidin-2-yl-7,8-dihydro-5H-pyrido[4,3-d]pyrimidin-6-yl)phenoxy]propyl]butanamide] | 0.724 |  |
| CC1c2cnc(-c3ncccn3)nc2CCN1c1cc(F)c(F)c(OCCCN2CCCC2=O)c1 (stereo not drawn) [Example 96, 1-[3-[2,3-difluoro-5-(5-methyl-2-pyrimidin-2-yl-7,8-dihydro-5H-pyrido[4,3-d]pyrimidin-6-yl)phenoxy]propyl]pyrrolidin-2-one] | 0.094 |  |
| CC1c2cnc(-c3ncccn3)nc2CCN1c1cc(F)c(F)c(OCCCS(N)(=O)=O)c1 (stereo not drawn) [Example 97, 3-[2,3-difluoro-5-(5-methyl-2-pyrimidin-2-yl-7,8-dihydro-5H-pyrido[4,3-d]pyrimidin-6-yl)phenoxy]propane-1-sulfonamide] | 0.154 |  |
| CC1c2cnc(-c3ncccn3)nc2CCN1c1cc(F)c(F)c(OCCCN2CCN(C(=O)OC(C)(C)C)CC2=O)c1 (stereo not drawn) [Example 98, tert-butyl 4-[3-[2,3-difluoro-5-(5-methyl-2-pyrimidin-2-yl-7,8-dihydro-5H-pyrido[4,3-d]pyrimidin-6-yl)phenoxy]propyl]-3-oxo-piperazine-1-carboxylate] | 0.372 |  |
